For three compounds, ED50 and IC50 results are on record in ChEMBL document CHEMBL1129047, “(2S,3S,5R)-2-(3,5-difluorophenyl)-3,5-dimethyl-2-morpholinol: a novel antidepressant agent and selective inhibitor of norepinephrine uptake” (J Med Chem, 1996).

In one assay the test system is Mus musculus. Put plainly: Compound was tested for the inhibition of tetrabenazine-induced sedation in mice, after peroral administration. The class given is functional. As to conditions: po.
For assay [1], the system named is Rattus norvegicus. Put plainly: Compound was tested for the inhibition of tetrabenazine-induced sedation in rat, after peroral administration; failed to produce a 50%antagonism. The class given is functional. As to conditions: po.
The species named for assay [2] is Rattus norvegicus. Nature of the assay: In vitro inhibition of dopamine (DA) uptake in synaptosomal preparation of rat brain. The class given is functional, organism-based.
Assay [3] is filed under the species Rattus norvegicus. Nature of the assay: In vitro inhibition of norepinephrine (NE) uptake in synaptosomal preparation of rat brain. In kind it is functional, organism-based.
For assay [4], the species on record is Rattus norvegicus. Put plainly: In vitro inhibition of serotonin uptake in synaptosomal preparation of rat brain. The class given is functional, organism-based.
Assay [5] has as its system Rattus norvegicus. Nature of the assay: Compound was tested for the inhibition of tetrabenazine-induced sedation in rat, after peroral administration. The class given is functional. As to conditions: po.

Broadly, the ED50 is the dose at which the effect has come halfway, by size or by number of responders. Low readings indicate greater potency, high ones weaker potency. For orientation: IC50 means the midpoint of a concentration-inhibition curve. Regarding `CC(NC(C)(C)C)C(=O)c1cccc(Cl)c1` (stereo not given) [BUPROPION], the ED50 in the assay on Mus musculus is 32 mg/kg; in the assay with Rattus norvegicus [1] it was greater than 100 mg/kg. For the same compound, the IC50 is 900 nM in the assay listed under Rattus norvegicus [2], 2400 nM in the assay listed under Rattus norvegicus [3] and greater than 10000 nM in the assay listed under Rattus norvegicus [4].
Take `CN(C)CCCN1c2ccccc2CCc2ccccc21` [IMIPRAMINE]: the values for the ED50 with Mus musculus and in the assay on Rattus norvegicus [5] were 9 mg/kg and 13.4 mg/kg, respectively. Further, the IC50 was greater than 10000 nM in the assay listed under Rattus norvegicus [2], 40 nM in the assay filed under Rattus norvegicus [3] and 500 nM in the assay filed under Rattus norvegicus [4].
For `C[C@@H]1CO[C@@](O)(c2cc(F)cc(F)c2)[C@H](C)N1` [MANIFAXINE], the ED50 with Mus musculus was determined as 6.2 mg/kg; in the assay with Rattus norvegicus [5], 1.4 mg/kg. Also, the figures for the IC50 in the assay listed under Rattus norvegicus [2], in the assay listed under Rattus norvegicus [3] and in the assay listed under Rattus norvegicus [4] were 1000 nM, 70 nM and greater than 10000 nM, respectively.
